Laboratory results published in US4223032A, “Triazolo [4,5-b] quinolines and prophylaxis of allergic diseases with them” (Beecham Group Limited, priority 1977, dated 1980).

System: passive cutaneous anaphylaxis (PCA)
Test: Passive Cutaneous Anaphylaxis (PCA)
Format: in vivo, Male Wistar rats
Settings: rat, i.v., carrier PBS with NaHCO3, time 0 mins before antigen challenge
Description: Passive Cutaneous Anaphylaxis (PCA)
Serum containing heat labile homocytotropic antibody was raised in rats to crystallized ovalbumin XOA by the method of Mota (I. Mota, Immunology, 7,681 [1964] using Bordettela pertussis vaccine as adjuvant.
Passive cutaneous anaphylaxis (PCA) was carried out by a method based on that of Ovary and Bier, (A. Ovary and O. G. Bier, Proc. Soc. Exp. Biol. Med. 81, 584, [1952]) as modified by Goose and Blair. (Immunology 16, 749 [1969]).
Male Wistar rats of 250-300 g. were given 0.1 ml. of each of six twofold serial dilutions of pooled antiserum in 0.9% saline injected intradermally into separate sites on their shaved backs. Later (72 hrs.) the animals were challenged by intravenous injection of 0.3 ml. of a 1% solution of ovalbumin in an isotonic solution of saline buffered with 0.05 M, pH 7.2, Sorenson Buffer (PBS), mixed with 0.2 ml. of a 5% solution of Pontamine Sky Blue (6BX C.I. 24410, Raymond A. Lamb, London) in isotonic saline. The rats were killed after 20 min and the diameter of the blue wheals at the antibody injection sites was measured on the outer surface of the skin. The starting dilution of the serum was adjusted so that there was no response, after challenge, at the injection site of the highest dilution and a maximum response at the lowest dilutions. Typically six twofold serial dilutions of the serum from 1/4 to 1/128 were used.
Compounds were tested for their ability to reduce the diameter of the wheals at those intradermal sites which in control animals gave less than maximum response. Each dose of the compound was administered to six rats at a measured time prior to intravenous challenge with ovalbumin. Control groups of six rats were given the same volume (0.2 ml/100 g) of carrier fluid at the same time prior to the challenge.
The results were calculated as follows. % inhibition of PCA=100 (1-a/b) where a=the sum of the diameters of the wheals produced in the test animal at the sites of antibody dilutions as used in control groups and b=the mean sum of the diameters of the wheals produced in the control group of animals at those antibody sites where at least five out of six of the animals gave less than maximum response. A typical variation in the control group of animals was SEM± 6%.

O=c1c2ccccc2[nH]c2nn[nH]c12 [Example 1, 4,9-Dihydro-9-oxo-1H-triazolo[4,5-b] quinoline]
% Inhib PCA (2 mg/kg): 14%
% Inhib PCA (4 mg/kg): 22%
% Inhib PCA (10 mg/kg): 79%

Cc1ccc2[nH]c3nn[nH]c3c(=O)c2c1 [Example 2, 4,9-dihydro-7-methyl-9-oxo-1H-triazolo[4,5-b] quinoline]
% Inhib PCA (5 mg/kg): 16%
% Inhib PCA (10 mg/kg): 65%

O=c1c2cc(Cl)ccc2[nH]c2nn[nH]c12 [Example 3, 7-Chloro-4,9-dihydro-9-oxo-1H-triazolo[4,5-b] quinoline]
% Inhib PCA (5 mg/kg): 36%
% Inhib PCA (20 mg/kg): 70%
